The values that follow are results of earlier work, collected in patent US20070286864A1, “Combined treatment with an EGFR kinase inhibitor and an agent that sensitizes tumor cells to the effects of EGFR kinase inhibitors” (priority 2006, published 2007).

The test system of one data set is H460 cells. Conditions: erlotinib single agent (10 μM), relatively insensitive = maximum growth inhibition less than 50%.
A further data set concerns Calu6 cells. Particulars: erlotinib single agent (10 μM), relatively insensitive = maximum growth inhibition less than 50%.
The subject of the next data set is H1703 cells. Conditions: erlotinib single agent (10 μM), relatively insensitive = maximum growth inhibition less than 50%.
For a further data set, the system named is H358 cells. Particulars: erlotinib single agent (10 μM), sensitive = maximum growth inhibition greater than 50%.
Another data set concerns H292 cells. Particulars: erlotinib single agent (10 μM), sensitive = maximum growth inhibition greater than 50%.

Take `C#Cc1cccc(Nc2ncnc3cc(OCCOC)c(OCCOC)cc23)c1` [erlotinib, [6,7-bis(2-methoxyethoxy)-4-quinazolin-4-yl]-(3-ethynylphenyl)amine]: the “sensitivity of cell line to erlotinib” value is “relatively insensitive” in the data set with H460 cells; “relatively insensitive” in the data set on Calu6 cells; “relatively insensitive” in the data set with H1703 cells; “sensitive” in the data set on H358 cells; “sensitive” in the data set with H292 cells.
